This is an account of results in article PMC6743422, “Preclinical disposition of MGS0274 besylate, a prodrug of a potent group II metabotropic glutamate receptor agonist MGS0008 for the treatment of schizophrenia” (Pharmacology Research & Perspectives, 2019).

Data set [1] can be described thus: Pharmacokinetics after oral MGS0274 besylate in monkeys. The settings on record: fed male monkeys, MGS0274 besylate oral 2.89 mg/kg. The format is in vivo, cynomolgus monkey. Here is the method:
The pharmacokinetic profiles of MGS0008 and MGS0274 were investigated in fasted male Wistar rats (n = 3) and fed male cynomolgus monkeys (n = 4). Monkeys had been given 60 g of a primate diet (PS‐A; Oriental Yeast, Tokyo, Japan) one hour before administration. For intravenous administration, MGS0008 was dissolved in saline (pH7.4) and administered to rats (3 mg/kg) and monkeys (1 mg/kg). Blood samples were collected from the tail vein (rats) or the forelimb cephalic vein (monkeys) into tubes containing EDTA‐2K at 5, 15, and 30 minutes and at 1, 2, 4, 8, and 24 hours postdose for both species, and an additional sample was collected at 12 hours postdose for monkeys. Urine samples were collected until 48 hours at 24‐hour intervals (rats) or at 0‐ to 8‐hour, 8‐ to 24‐hour, and 24‐ to 48‐hour intervals (monkeys). The plasma or urine samples was mixed with acetonitrile/methanol (9:1, v/v) containing [^13C2 ^15N]MGS0008 and centrifuged. Aliquots of the supernatant were subjected to bioanalysis using LC‐MS/MS (see Table S1‐E). For oral administration, MGS0008 was dissolved in distilled water (rats) or 0.5% w/v methylcellulose 400 (monkeys) and administered to rats (3 mg/kg) and monkeys (1 mg/kg). MGS0274 besylate was suspended in 0.5% w/v methylcellulose 400 containing 0.1% v/v Tween 80 and administered to monkeys at a dose of 2.89 mg/kg (1‐mg equivalent of MGS0008/kg). Blood samples were collected from the tail vein (rats) or the forelimb cephalic vein (monkeys) into tubes containing EDTA‐2K at 30 minutes, 1, 1.5, 2, 4, 6, 8, and 24 hours postdose for rats, and 30 minutes, 1, 2, 4, 8, 12, and 24 hours postdose for monkeys. The plasma samples were mixed with acetonitrile/methanol (9:1, v/v) containing internal standards ([^13C2 ^15N]MGS0008 and MGS0039) and centrifuged. Aliquots of the supernatant were subjected to bioanalysis using LC‐MS/MS (see Tables S1‐E and F). In the study examining the tissue distribution of MGS0008 in rats (3 mg/kg), blood samples were collected from the posterior vena cava into tubes containing EDTA‐2K under isoflurane anesthesia at 1.5, 4, 6, or 24 hours postdose. Then, the animals were euthanized by exsanguination from the abdominal aorta; cerebrospinal fluid (CSF) samples were drawn from the spinal cord space in each animal. The plasma or CSF was mixed with acetonitrile/methanol (9:1, v/v) containing [^13C2 ^15N]MGS0008 and centrifuged. Aliquots of the supernatant were subjected to bioanalysis using LC‐MS/MS (see Table S1‐E). The plasma concentration‐time profiles of MGS0008 and MGS0274 were analyzed using a non‐compartmental analysis method with pharmacokinetic analysis software Phoenix® WinNonlin® 6.2 or later (Certara, Princeton, NJ).

A short description of data set [2]: Prediction of human pharmacokinetic parameters by single-species allometric scaling. The procedure: The prediction of CLtotal, Vdss, and t1/2 in humans was performed using single‐species allometric scaling methods 14 with the pharmacokinetic parameters obtained from the intravenous administration of MGS0008 to rats and monkeys, unbound fraction of MGS0008 in rat, monkey, and human plasma (1.0), and body weight of rats (0.3 kg), monkeys (5 kg), and humans (60 kg).

Where [3] appears, read: cynomolgus monkey, plasma, compound monitored MGS0274, mean of two animals.
The mark [4] stands for this setting: single-species allometric scaling from the monkey data.
Where [5] appears, read: single-species allometric scaling from the rat data.

SMILES strings stand for the structures. “Also recorded” adds a separate entry of the source.

In general, Cmax refers to the maximum level reached in the sampled fluid or tissue. In general, Tmax refers to the time at which the peak concentration occurs. For the molecule `CC(C)[C@@H]1CC[C@@H](C)C[C@H]1OC(=O)O[C@@H](C)OC(=O)[C@H]1[C@@H]2C[C@H](F)[C@@](N)(C(=O)O)[C@@H]21.O=S(=O)(O)c1ccccc1` [MGS0274 besylate, (1S,2S,3S,5R,6S)‐2‐amino‐3‐fluoro‐6‐({(1S)‐1‐[({[(1R,2S,5R)‐5‐methyl‐2‐(propan‐2‐yl)cyclohexyl]oxy}carbonyl)oxy]ethoxy}carbonyl)bicyclo[3.1.0]hexane‐2‐carboxylic acid monobenzenesulfonate], in data set [1] (setting [3]), the concentration peaked (Cmax) at 1.28 ng/mL and the Tmax worked out at 1 h. In addition, the AUC(0-t) in data set [1] (cynomolgus monkey, plasma, compound monitored MGS0274, mean of two animals, read-out: AUC0–24h of MGS0274) turned out to be 2.03 ng·h/mL. Besides, the vomiting result in data set [1] is “two of the four monkeys experienced vomiting”. In data set [1] (lower limit of quantification 1 ng/mL, 2.89 mg/kg), the MGS0274 in plasma entry is “barely detectable; also recorded: barely detected”.

`N[C@]1(C(=O)O)[C@H]2[C@@H](C[C@@H]1F)[C@@H]2C(=O)O` [MGS0008, (1S,2S,3S,5R,6S)‐2‐amino‐3‐fluorobicyclo[3.1.0]hexane‐2,6‐dicarboxylic acid]: in data set [2] (setting [4]), the “predicted CLtotal in humans” value was 1.16 mL/min/kg, the “predicted Vdss in humans” value is 0.181 L/kg and the “predicted t1/2 in humans” value was 1.8 h. In data set [2] (setting [5]), the “predicted CLtotal in humans” value was 2.43 mL/min/kg, the “predicted Vdss in humans” value was 0.545 L/kg and the “predicted t1/2 in humans” value was 2.6 h.
